The values below come from patent publication US11034650B2, “Compounds useful for treating a Mannheimia haemolytica or Histophilus somni infection” (Intervet Inc., priority 2016, dated 2021).

Values after ≈ are worked out from the molar mass of the structure shown.

Common to all, as to assay type: cell-based
Experiment [1] deals with Mannheimia haemolytica MH 6357 (M7/2, reference strain, cattle infection strain). Description: MIC, broth-microdilution (CLSI VET01-A4), strain MH 6357. To be noted: Mannheimia haemolytica strain MH 6357, broth-microdilution; unit assumed. The procedure, abridged: (§1)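 The compound was titrated in twofold steps in microdilution trays. Absence of turbidity, checked without instruments, marked the MIC at the lowest such concentration.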
For orientation: Dilution methods test growth across graded concentrations, often in twofold steps.

The subject of experiment [2] is Mannheimia haemolytica MH 6374 (ATCC 33396, reference strain). Kind of experiment: MIC, broth-microdilution (CLSI VET01-A4), strain MH 6374. To be noted: Mannheimia haemolytica strain MH 6374, broth-microdilution; unit assumed. An outline of the steps:
as §1

Experiment [3] has as its system Mannheimia haemolytica MH 10720 (154, BRD field isolate). Kind of experiment: MIC, broth-microdilution (CLSI VET01-A4), strain MH 10720. The note with it: Mannheimia haemolytica strain MH 10720, broth-microdilution; unit assumed. The procedure, abridged: as §1
Experiment [4] deals with Mannheimia haemolytica MH 12587 (1071, BRD field isolate, macrolide-resistance: erm+, E+). Kind of experiment: MIC, broth-microdilution (CLSI VET01-A4), strain MH 12587. The note with it: Mannheimia haemolytica strain MH 12587, broth-microdilution; unit assumed. The procedure, abridged:
as §1

In experiment [5] the test system is Mannheimia haemolytica MH 13065 (XB0446-6003.9, BRD field isolate). Description: MIC, broth-microdilution (CLSI VET01-A4), strain MH 13065. The note with it: Mannheimia haemolytica strain MH 13065, broth-microdilution; unit assumed. The procedure, abridged: as §1
For experiment [6], the system named is Mannheimia haemolytica MH 13093 (XB0472-6014.1, BRD field isolate). Kind of experiment: MIC, broth-microdilution (CLSI VET01-A4), strain MH 13093. The note with it: Mannheimia haemolytica strain MH 13093, broth-microdilution; unit assumed. An outline of the steps:
as §1

Experiment [7] concerns Pasteurella multocida PM 6267 (P 2225 (L386), reference strain, mouse infection strain). Kind of experiment: MIC, broth-microdilution (CLSI VET01-A4), strain PM 6267. The note with it: Pasteurella multocida strain PM 6267, broth-microdilution; unit assumed. The procedure, abridged: as §1
For experiment [8], the system named is Pasteurella multocida PM 6391 (ATCC 43137, reference strain). Description: MIC, broth-microdilution (CLSI VET01-A4), strain PM 6391. The note with it: Pasteurella multocida strain PM 6391, broth-microdilution; unit assumed. The procedure, abridged: as §1
Experiment [9] deals with Pasteurella multocida PM 10775 (080130003051, BRD field isolate). Description: MIC, broth-microdilution (CLSI VET01-A4), strain PM 10775. The note with it: Pasteurella multocida strain PM 10775, broth-microdilution; unit assumed. The procedure, abridged: as §1
Experiment [10] has as its system Pasteurella multocida PM 12080 (IV102277-0093, BRD field isolate). Kind of experiment: MIC, broth-microdilution (CLSI VET01-A4), strain PM 12080. To be noted: Pasteurella multocida strain PM 12080, broth-microdilution; unit assumed. An outline of the steps: as §1

With `COCCNCc1ccc(C#Cc2ccc(C(=O)N[C@H](C(=O)NO)C(C)(C)S(C)(=O)=O)cc2)cn1` [Compound 349], in experiment [1], the MIC MH 6357 stood at 1.6 µg/mL (≈ 3.18 µM). In experiment [2], this molecule yielded an MIC MH 6374 of 3.1 µg/mL (≈ 6.17 µM). The molecule also displayed an MIC MH 10720 in experiment [3] of 0.8 µg/mL (≈ 1.59 µM). The same molecule had an MIC MH 12587 in [4] of 6.3 µg/mL (≈ 12.5 µM). This molecule registered an MIC MH 13065 in experiment [5] of 6.3 µg/mL (≈ 12.5 µM). In addition, in [6], the MIC MH 13093 came to 3.1 µg/mL (≈ 6.17 µM). In experiment [7], the MIC PM 6267 turned out to be 1.6 µg/mL (≈ 3.18 µM). In experiment [8], this molecule returned an MIC PM 6391 of 0.8 µg/mL (≈ 1.59 µM). For the same molecule, the MIC PM 10775 in [9] is ≤ 0.1 µg/mL. Further, the MIC PM 12080 in [10] was 0.4 µg/mL (≈ 0.796 µM).
In the case of `CC(C)(C(NC(=O)c1ccc(C#Cc2ccc(CN3CCOCC3)nc2)cc1)C(=O)NO)S(C)(=O)=O` (stereo not drawn) [Compound 350], the MIC MH 6357 in experiment [1] was 6.3 µg/mL (≈ 12.2 µM). In experiment [2], the MIC MH 6374 amounted to 6.3 µg/mL (≈ 12.2 µM). In [3], this molecule had an MIC MH 10720 of 1.6 µg/mL (≈ 3.11 µM). For the same molecule, in experiment [4], the MIC MH 12587 stood at 12.5 µg/mL (≈ 24.3 µM). This molecule yielded an MIC MH 13065 in experiment [5] of 6.3 µg/mL (≈ 12.2 µM). The molecule also showed an MIC MH 13093 in experiment [6] of 6.3 µg/mL (≈ 12.2 µM). This molecule also came in with an MIC PM 6267 in experiment [7] of 6.3 µg/mL (≈ 12.2 µM). The MIC PM 6391 in experiment [8] worked out at 0.8 µg/mL (≈ 1.55 µM). For the same molecule, the MIC PM 10775 in experiment [9] is ≤ 0.1 µg/mL. Besides, in experiment [10], the MIC PM 12080 was found to be 0.4 µg/mL (≈ 0.777 µM).
In turn, `CC(C)([C@H](NC(=O)c1ccc(C#Cc2ccc(CNCc3ccccc3)nc2)cc1)C(=O)NO)S(C)(=O)=O` [Compound 351] gave an MIC MH 6357 in experiment [1] of 0.4 µg/mL (≈ 0.748 µM). Moreover, in experiment [2], the MIC MH 6374 is 0.4 µg/mL (≈ 0.748 µM). In experiment [3], the MIC MH 10720 is ≤ 0.1 µg/mL. The same molecule returned an MIC MH 12587 in [4] of 1.6 µg/mL (≈ 2.99 µM). In [5], this molecule had an MIC MH 13065 of 1.6 µg/mL (≈ 2.99 µM). The molecule further registered an MIC MH 13093 in [6] of 0.8 µg/mL (≈ 1.5 µM). In [7], this molecule registered an MIC PM 6267 of 0.4 µg/mL (≈ 0.748 µM). Besides, the MIC PM 6391 in [8] stood at 0.4 µg/mL (≈ 0.748 µM). Besides, in experiment [9], the MIC PM 10775 was ≤ 0.1 µg/mL. Also, the MIC PM 12080 in [10] is ≤ 0.1 µg/mL.
As to `COc1ccc(CNCc2ccc(C#Cc3ccc(C(=O)N[C@H](C(=O)NO)C(C)(C)S(C)(=O)=O)cc3)cn2)cc1` [Compound 352], the MIC MH 6357 in experiment [1] turned out to be 0.8 µg/mL (≈ 1.42 µM). In addition, the MIC MH 6374 in experiment [2] worked out at 0.8 µg/mL (≈ 1.42 µM). In experiment [3], this molecule showed an MIC MH 10720 of 0.2 µg/mL (≈ 0.354 µM). Besides, in experiment [4], the MIC MH 12587 came to 3.1 µg/mL (≈ 5.49 µM). In [5], this molecule came in with an MIC MH 13065 of 1.6 µg/mL (≈ 2.83 µM). The molecule further gave an MIC MH 13093 in [6] of 1.6 µg/mL (≈ 2.83 µM). The molecule further showed an MIC PM 6267 in experiment [7] of 0.8 µg/mL (≈ 1.42 µM). This molecule registered an MIC PM 6391 in experiment [8] of 0.4 µg/mL (≈ 0.708 µM). The MIC PM 10775 in [9] was ≤ 0.1 µg/mL. Moreover, in [10], the MIC PM 12080 is 0.2 µg/mL (≈ 0.354 µM).
In the case of `CC(C)([C@H](NC(=O)c1ccc(C#Cc2ccc(CNCc3ccccn3)nc2)cc1)C(=O)NO)S(C)(=O)=O` [Compound 353], in experiment [1], the MIC MH 6357 worked out at 3.1 µg/mL (≈ 5.79 µM). Also, the MIC MH 6374 in experiment [2] was 6.3 µg/mL (≈ 11.8 µM). The same molecule gave an MIC MH 10720 in experiment [3] of 0.8 µg/mL (≈ 1.49 µM). The molecule also registered an MIC MH 12587 in [4] of 12.5 µg/mL (≈ 23.3 µM). The same molecule displayed an MIC MH 13065 in experiment [5] of 6.3 µg/mL (≈ 11.8 µM). Also, the MIC MH 13093 in [6] stood at 6.3 µg/mL (≈ 11.8 µM). In experiment [7], the MIC PM 6267 came to 3.1 µg/mL (≈ 5.79 µM). The same molecule returned an MIC PM 6391 in experiment [8] of 1.6 µg/mL (≈ 2.99 µM). Further, the MIC PM 10775 in experiment [9] was found to be 0.4 µg/mL (≈ 0.747 µM). This molecule had an MIC PM 12080 in [10] of 0.8 µg/mL (≈ 1.49 µM).
The molecule `CC(C)([C@H](NC(=O)c1ccc(C#Cc2ccc(CNCc3ccco3)nc2)cc1)C(=O)NO)S(C)(=O)=O` [Compound 354] returned an MIC MH 6357 in experiment [1] of 0.4 µg/mL (≈ 0.762 µM). This molecule also gave an MIC MH 6374 in experiment [2] of 0.8 µg/mL (≈ 1.52 µM). In addition, the MIC MH 10720 in experiment [3] came out at 0.2 µg/mL (≈ 0.381 µM). The MIC MH 12587 in [4] worked out at 1.6 µg/mL (≈ 3.05 µM). Also, in experiment [5], the MIC MH 13065 was 1.6 µg/mL (≈ 3.05 µM). For the same molecule, in [6], the MIC MH 13093 amounted to 0.8 µg/mL (≈ 1.52 µM). In addition, the MIC PM 6267 in [7] was found to be 0.8 µg/mL (≈ 1.52 µM). The molecule also showed an MIC PM 6391 in experiment [8] of 0.4 µg/mL (≈ 0.762 µM). In experiment [9], the MIC PM 10775 is ≤ 0.1 µg/mL. The same molecule yielded an MIC PM 12080 in experiment [10] of 0.2 µg/mL (≈ 0.381 µM).
